One experiment deals with Vibrio fischen. Conditions: cited from earlier work.
The test system of experiment [1] is bacteria phosphotransferase system (PTS) of E. coli mutant 1219bgl+. Description: microbe, parasite or virus in culture. Conditions: for IC50: pH 6.5, read-out: EC50. Format: cell-based. From the text:
Since the phosphotransferase system for the bacterial cell is an essential transport system for the reception of extracellular carbohydrates, a possible inhibition or adverse effect of the participating enzymes should be noticed to cause a reduction in the carbohydrate transport, that is the PTS constitutes a potential possibility for the detection of toxic substances in microorganisms. […] Said analog is of such a nature that it, in phosphorylated form after the cell transport, can be hydrolyzed by an enzyme in the bacterial cell under the release of a substance susceptible to analysis. If, for instance, 2-nitrophenyl-β-D-glucoside is used as substrate analog, this will be channeled by the PTS under phosphorylation into a bacterial cell, where the ONP-Glc-6-P is broken down hydrolytically by the inducible 6-phospho-β-glucosidase B to Glc-6-P and 2-nitrophenyl. The released 2-nitrophenyl can then, by means of photometry, be quantitatively measured as phenolate-anion after a defined time span. Additionally, with E. coli mutant 1219bgl+ a bacterium is present that is characterized by increased β-glycoside activity, yet is not transformed through genetic engineering nor is pathogenic, which is an important prerequisite for harmless work with bacteria.
The test occurs with a total reaction volume of 500 μl in Eppendorf cups, the O.D.578 of the bacteria suspension amounting to 3.0.
The E. coli cultures of the mutant 1219 bgl+, preserved at -20° C., are first thawed to be reactivated during 10 min. at room temperature. They are then suspended in 250 μl of 50 mM buffer and together with the appropriate test solution and distilled water brought to a volume of 480 μl . This suspension is then pre-incubated over a time span of 10-15 minutes at 37° C. After that, the reaction is started by adding 20 μl of ONP-glucose (50 mM) (equivalent to a final concentration in the reaction batch of 2 mM). The reaction mixture is incubated over a time span of 5 minutes at 37° C. After the end of this reaction time the reaction is terminated by adding 1 ml of Na2 CO3 (0.5M). After a 2 minute centrifugation at 17,000×g the substrate transformations of the tested bacteria suspensions are photometrically determined at 405 nm.
The evaluation of the PTS test with ONP-glycosides is done by means of the toxicological characteristic quantity of the "efficient concentration", (the EC value). It is hereinunder understood with such a concentration of added toxic substance that a measurable parameter of an organism will be inhibited to a certain extent within a freely defined time span. The percentage of adverse effect of the parameter to be measured is indicated by the attached index.
The conversion of the registered percentage inhibitory values into EC values is carried out with the help of the gamma method (Johnson, F. H., Eyring, H. and Stover, B. J., 1974; The theory of rate processes in biology and medicine, John Wiley & Sons, New York: 1-385). With the aid of the O.D.405, registered in the PTS inhibition test, the quotient is formed from the ONP-glycoside cleavage output and the remaining ONP-glycoside cleavage. [formula] O.D.405 : Substrate transformation without toxic substance solution. D O.D.405 : Output of the substrate transformation after incubation with the toxic substance solution.
The gamma values hereby obtained are used against the employed concentration of toxic substance, in a double logarithmic representation. […]

For experiment [2], the system named is E. coli mutant 1219bgl+ PTS. Nature of the experiment: ONP-glycoside cleavage in dependency on substrate concentration (Lineweaver-Burk). Format: cell-based. Conditions: Lineweaver-Burk process. As to the method:
Looking more closely into the ONP-glycoside cleavage in dependency on substrate concentration, we find the presence of saturation kinetics without substrate inhibition (FIG. 4). […] Since, when increasing the substrate concentration, there was no further velocity increase to be registered, the dosage of the substrate to be used, according to the invention, takes place in accord with a cost and efficiency weighting at 2 mM. When performing the PTS inhibition test, in accordance with the invention, it also turned out that the sensitivity of the test is clearly dependent on the kind of buffer used. It was particularly conspicuous that phosphate buffer has a clearly stimulating effect on the ONP-glycoside hydrolysis, whereas, on the other hand, when performing the inhibition test with heavy metals as toxic substances, the strongest inhibitory effects were to be registered when using the HEPES buffer. It should however be taken into account that a phosphate buffer in the presence of heavy metal salts is less suitable due to solubility problems that then might occur. Therefore when testing heavy metals, the HEPES buffer should preferably be chosen.

[3] abbreviates: heavy metal ions as chlorides, HEPES buffer pH 6.5, 37° C., 5 min reaction, 5 min.
Where [4] appears, read: heavy metal ions as chlorides, HEPES buffer pH 6.5, 37° C., 5 min reaction, read-out: EC50.
The mark [5] stands for this setting: reaction time 10 min, Beckmann, 1980.
Setting [6] is: Escherichia coli, pH 6.5, read-out: EC10, organic solvents, 50 mM phosphate buffer pH 6.5.
Where [7] appears, read: organic solvents, 50 mM phosphate buffer pH 6.5.

Converted amounts (≈) assume the structure as drawn. “And” between values parts separate entries of the source, which are not always exact repeats. Equal values may be shown once. Read-outs that look alike come from different tables or passages of the source.

The EC10 is the concentration at which the effect reaches the 10% level. Read a low EC10 as greater potency. By Km is commonly meant the concentration of substrate that gives half-maximal velocity.

With `[Hg+2]` [Hg^2+], the “Bioluminescent Inhibition Test EC50 (ppm)” value in the experiment on Vibrio fischen (reaction time 5 min, Bulich et al., 1981) is on record as 0.065 ppm. The maximal inhibition result in experiment [1] (HEPES buffer pH 6.5) is reported as “about 70%”. The EC50 was determined as 2.1 ppm in experiment [1] (setting [3]) and 10.3 µM in experiment [1] (setting [4]).

For `[Cu+2]` [Cu^2+], the “Bioluminescent Inhibition Test EC50 (ppm)” value with Vibrio fischen (setting [5]) was 16 ppm. Also, the EC50 in experiment [1] (setting [3]) turned out to be 11 ppm; in experiment [1] (setting [4]) it was 173 µM.

As to `[Cr+3]` [Cr^3+], the EC50 in experiment [1] (setting [3]) was 16 ppm.

Turning to `[Pb+2]` [Pb^2+], in the experiment with Vibrio fischen (reaction time 30 min, Beckmann, 1981), the “Bioluminescent Inhibition Test EC50 (ppm)” value is 0.4 ppm. For the same compound, the values for the EC50 in experiment [1] (setting [3]) and in experiment [1] (setting [4]) were 67 ppm and 322 µM, respectively. In addition, the EC10 in experiment [1] (heavy metal ions as chlorides, HEPES buffer pH 6.5, 37° C., 5 min reaction, listed as Pb^+) was 120 µM.

On to `CCCCCCCCCCCCOS(=O)(=O)O` [SDS], for which, in experiment [1] (Escherichia coli, 5 min), the IC50 is 13 µg/mL (≈ 0.0488 mM). This compound also had an EC50 in experiment [1] (Escherichia coli, pH 6.5) of 45.1 µM. Moreover, the IC10 in experiment [1] (Escherichia coli, pH 6.5, read-out: EC10, detergents, 50 mM HEPES buffer pH 6.5) is 5.5 µg/mL and ~19 µM.

Turning to `[Zn+2]` [Zn^2+], the “Bioluminescent Inhibition Test EC50 (ppm)” value in the experiment with Vibrio fischen (setting [5]) is given as 25.4 ppm. The EC50 was found to be 8 ppm in experiment [1] (setting [3]) and 122 µM in experiment [1] (setting [4]).

For `Oc1ccccc1` [Phenol, phenol], the “Bioluminescent Inhibition Test EC50 (ppm)” value in the experiment on Vibrio fischen (vibrio fischeri luminescence) was 25. The IC50 in experiment [1] (Escherichia coli, 5 min) is 1400 µg/mL (≈ 14.9 mM). Further, in experiment [1] (Escherichia coli, pH 6.5), the EC50 was found to be 14900 µM. Further, in experiment [1] (setting [6]), the IC10 was 350 µg/mL and 3.7 µM.

In the case of `[Ni+2]` [Ni^2+], the maximal inhibition result in experiment [1] (HEPES buffer pH 6.5) is given as “about 70%”. Also, the values for the EC50 in experiment [1] (setting [3]) and in experiment [1] (setting [4]) were 4.5 ppm and 76.6 µM, respectively.

For the compound `[Cd+2]` [Cd^2+], the “Bioluminescent Inhibition Test EC50 (ppm)” value in the experiment on Vibrio fischen (setting [5]) is 131 ppm. Besides, the EC50 came to 19 ppm in experiment [1] (setting [3]) and 169 µM in experiment [1] (setting [4]).

Consider `O=[N+]([O-])c1ccccc1O[C@@H]1O[C@H](CO)[C@@H](O)[C@H](O)[C@H]1O` [ONP-glycoside, 2-nitrophenyl-β-D-glucoside], for which, in experiment [2], the Km stood at 2000 µM and the maximal reaction velocity worked out at 42 nmol/min/mL.

As for Triton X-100, the EC50 in experiment [1] (detergents, 50 mM HEPES buffer pH 6.5, 5 min) is given as 180 ppm.

For `C1COCCO1` [Dioxan, dioxan], the IC50 in experiment [1] (Escherichia coli, 5 min) was determined as 30000 µg/mL (≈ 340 mM). Also, the IC10 in experiment [1] (setting [6]) is 10000 µg/mL and 114 µM. Also, in experiment [1] (setting [7]), the EC10 entry was “approx. 10,000 ppm”.

In the case of `Cc1ccccc1` [Toluene, toluene], the IC50 in experiment [1] (Escherichia coli, 5 min) was found to be 35 µg/mL (≈ 0.38 mM). Besides, the EC50 in experiment [1] (Escherichia coli, pH 6.5) came to 380 µM.

For the compound `CCO` [Ethanol, ethanol], the “Bioluminescent Inhibition Test EC50 (ppm)” value in the experiment on Vibrio fischen (vibrio fischeri luminescence) is 31,000. Moreover, in experiment [1] (Escherichia coli, 5 min), the IC50 is 33000 µg/mL (≈ 716 mM). Further, the IC10 in experiment [1] (setting [6]) was 10500 µg/mL and 288 µM. Besides, in experiment [1] (setting [7]), the EC10 entry is “approx. 10,500 ppm”.

For `ClC(Cl)Cl` [Chloroform, chloroform], in the experiment on Vibrio fischen (vibrio fischeri luminescence), the “Bioluminescent Inhibition Test EC50 (ppm)” value is 1,168. In experiment [1] (Escherichia coli, 5 min), the IC50 is 1900 µg/mL (≈ 15.9 mM). The EC50 in experiment [1] (Escherichia coli, pH 6.5) was found to be 15900 µM. Moreover, in experiment [1] (setting [6]), the IC10 is 720 µg/mL and 6 µM.

In the case of `ClCCCl` [Dichloroethane, dichloroethane], in experiment [1] (at approx. 3,500 ppm (approximative 35 μM as printed), phosphate buffer pH 6.5, no extrapolation to gamma values possible), the “inhibition of ONP-glucose transformation” value is given as “about 30%”.

Source of the values: US5672470A, “Microbial process for detection of toxic substances” (priority 1994, dated 1997).
